Assay results reported in article PMC9569971, “New Oxazolo[5,4-d]pyrimidines as Potential Anticancer Agents: Their Design, Synthesis, and In Vitro Biological Activity Research” (International Journal of Molecular Sciences, 2022).

What was measured:
[1] = system: primary colon adenocarcinoma (HT29); test: MTT viability assay, HT29; assay type: cell-based, human; conditions: for CC50: tested 1–500 µM
[2] = system: p53; test: p53 Human ELISA Kit, HT29 lysate; assay type: cell-based; conditions: lysate of HT29 cells treated with 3g; SD ±0.97
Procedure: The assay was performed on a lysate of the HT29 colon adenocarcinoma cell line treated with compound 3g. The microwells of the 96-well plate were washed 2 times with approximately 400 µL of washing buffer per well. The washing buffer was left in the wells for approximately 15 s prior to aspiration. Care was taken not to scratch the surface of the microwells. After the final rinsing step, the wells were emptied. An absorbent swab was used to remove excess wash buffer. Standard dilutions were applied to the microwell plate. Two rows of human p53 standard were prepared at dilutions ranging from 50.00 to 0.78 U/mL. […] The color change was monitored with an ELISA measured at 620 nm. The colored product was formed in proportion to the quantity of human p53 protein present in the sample and the standard. […] The results were read immediately after the addition of the enzyme stop solution. Absorbance was measured with a spectrophotometer at 450 nm. A standard curve was prepared from 7 dilutions of the human p53 standard from which the values for compound 3g were read.
Biological assays were performed in three independent replicates, and each replicate used four samples. […] For the assessment of cytotoxicity, mathematical models were developed using the GraphPad PRISM software, based on which CC50 was determined. […]

[3] = system: HT29 primary colon adenocarcinoma cells; test: Detection of apoptosis (Annexin V FITC / propidium iodide); assay type: cell-based, human; set-up: unit not given here; conditions: 24 h
In short: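 After 24 h growth at 30,000 cells/well, HT29 cells were treated with compound at 1, 2, 5 and 10 µM for 24 h. They were then stained with Annexin V-FITC/propidium iodide in PBS with Mg²⁺/Ca²⁺ for 20 min at 37 °C.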

Cc1noc(N)c1-c1nc2c(NCCCN(C)C)ncnc2o1 [Compound 3g, 2-(5-Amino-3-methylisoxazol-4-yl)-7-N-[3-(N,N-dimethylamino)propyl]aminooxazolo[5,4-d]pyrimidine]
SI (selectivity index) ([1]; CC50 NHDF / CC50 HT29): 2.662 | CC50 ([1]; HT29, MTT): 58.4 ± 8.75 µM | CC50 ([1]; Homo sapiens, HT-29, HT29, MTT): 58.4 µM | p53 concentration [2]: 4.22 [U/mL] | apoptosis mean ([3]; 1 μM): 3.74 | late apoptosis mean ([3]; 1 μM): 8.08 | necrosis mean ([3]; 1 μM): 11.28 | percent live (viable) cells ([3]; 1 μM): 76.90 | apoptosis mean ([3]; 2 μM): 9.72 | late apoptosis mean ([3]; 2 μM): 9.30 | necrosis mean ([3]; 2 μM): 6.34 | percent live (viable) cells ([3]; 2 μM): 74.65 | apoptosis mean ([3]; 5 μM): 51.54 | late apoptosis mean ([3]; 5 μM): 23.48 | necrosis mean ([3]; 5 μM): 1.18 | percent live (viable) cells ([3]; 5 μM): 23.81 | apoptosis mean ([3]; 10 μM): 45.24 | late apoptosis mean ([3]; 10 μM): 29.23 | necrosis mean ([3]; 10 μM): 0.90 | percent live (viable) cells ([3]; 10 μM): 24.62
